Measurements reported in patent publication US6525001B1, “Substituted pyrimidine and pyridine herbicides” (Mid-American Commercialization Corporation, priority 1997, dated 2003).

Assays:
Test in all cases: Test B pre-/postemergence
Type in all cases: in vivo
Set-up in all cases: key: 0 is no effect; 10 is complete control
[1] = test system: cocklebur (Xanthium strumarium)
Method in brief: (§1)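 Seeds were planted and sprayed preemergence, while plants at 2 to 18 cm (1- to 4-leaf stage) were sprayed postemergence at the same time, with test chemical in a non-phytotoxic solvent mixture containing surfactant. After twelve to sixteen days in a greenhouse, injury was rated visually against untreated controls on a 0–10 scale.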

[2] = test system: blackgrass (Alopecurus myosuroides)
Method in brief: as §1

[3] = test system: pigweed (Amaranthus retroflexus)
Method in brief: as §1

[4] = test system: momingglory (Ipomoea hederacea)
Method in brief: as §1

[5] = test system: broadleaf signalgrass (Brachiaria decumbens)
Method in brief: as §1

[6] = Preemergence, Rate 62 g/ha, scale of 0 to 10

| SMILES | Plant response rating, Cocklebur ([1]; Rate 250 g/ha, Postemergence) | Plant response rating, Cocklebur ([1]; Rate 250 g/ha, Preemergence) | Plant response rating, Cocklebur ([1]; Rate 500 g/ha, Postemergence) | Plant response rating, Blackgrass ([2]; Rate 250 g/ha, Postemergence) | Plant response rating, Blackgrass ([2]; Rate 250 g/ha, Preemergence) | Plant response rating, Blackgrass ([2]; Rate 500 g/ha, Postemergence) | Plant response rating, Blackgrass ([2]; Rate 500 g/ha, Preemergence) | Plant response rating, Redroot pigweed ([3]; Rate 250 g/ha, Postemergence) | Plant response rating, Redroot pigweed ([3]; Rate 250 g/ha, Preemergence) | Plant response rating, Redroot pigweed ([3]; Rate 500 g/ha, Postemergence) | Plant response rating, Redroot pigweed ([3]; Rate 500 g/ha, Preemergence) | Plant response rating, Morningglory ([4]; Rate 250 g/ha, Postemergence) | Plant response rating, Morningglory ([4]; Rate 250 g/ha, Preemergence) | Plant response rating, Morningglory ([4]; Rate 500 g/ha, Postemergence) | Plant response rating, Morningglory ([4]; Rate 500 g/ha, Preemergence) | B. signalgrass plant response rating ([5]; Rate 62 g/ha, Preemergence) | Plant response rating, B. signalgrass ([5]; Rate 250 g/ha, Postemergence) | Plant response rating, B. signalgrass ([5]; Rate 250 g/ha, Preemergence) | Plant response rating, B. signalgrass ([5]; Rate 500 g/ha, Postemergence) | Plant response rating, B. signalgrass ([5]; Rate 500 g/ha, Preemergence) | other results |
| --- | --- | --- | --- | --- | --- | --- | --- | --- | --- | --- | --- | --- | --- | --- | --- | --- | --- | --- | --- | --- | --- |
| Cc1cnc(-c2ccc(C(F)(F)F)cc2)nc1C(=O)c1cccc(C(F)(F)F)c1 [Compound 73] | 9 | 7 | 8 | 9 | 10 | 9 | 10 | 10 | 10 | 10 | 10 | 9 | 9 | 10 | 10 | 9 | 9 | 9 | 8 | 10 | Plant response rating, Cocklebur [1, 6]: 0; Cocklebur plant response rating ([1]; Rate 62 g/ha, Postemergence): 9; Cocklebur plant response rating ([1]; Rate 125 g/ha, Postemergence): 9; Plant response rating, Cocklebur ([1]; Rate 125 g/ha, Preemergence): 1; Plant response rating, Blackgrass [2, 6]: 8; Blackgrass plant response rating ([2]; Rate 62 g/ha, Postemergence): 7; Blackgrass plant response rating ([2]; Rate 125 g/ha, Postemergence): 7; Plant response rating, Blackgrass ([2]; Rate 125 g/ha, Preemergence): 9; Plant response rating, Redroot pigweed [3, 6]: 9; Redroot pigweed plant response rating ([3]; Rate 62 g/ha, Postemergence): 9; Redroot pigweed plant response rating ([3]; Rate 125 g/ha, Postemergence): 9; Plant response rating, Redroot pigweed ([3]; Rate 125 g/ha, Preemergence): 10; Plant response rating, Morningglory [4, 6]: 3; Morningglory plant response rating ([4]; Rate 62 g/ha, Postemergence): 9; Morningglory plant response rating ([4]; Rate 125 g/ha, Postemergence): 9; Plant response rating, Morningglory ([4]; Rate 125 g/ha, Preemergence): 9; B. signalgrass plant response rating ([5]; Rate 62 g/ha, Postemergence): 8; B. signalgrass plant response rating ([5]; Rate 125 g/ha, Postemergence): 9; Plant response rating, B. signalgrass ([5]; Rate 125 g/ha, Preemergence): 9 |
| Cc1cnc(-c2ccc(OC(F)(F)F)cc2)nc1Cc1cccc(C(F)(F)F)c1 [Compound 16] | 5 | 0 | 6 | 2 | 2 | 3 | 4 | 8 | 8 | 9 | 8 | 1 | 0 | 1 | 1 | 0 | 1 | 3 | 1 | 7 | Plant response rating, Cocklebur ([1]; Rate 62 g/ha, Postemergence): 4; Cocklebur plant response rating ([1]; Rate 62 g/ha, Preemergence): 0; Plant response rating, Cocklebur ([1]; Rate 125 g/ha, Postemergence): 4; Cocklebur plant response rating ([1]; Rate 125 g/ha, Preemergence): 0; Plant response rating, Cocklebur ([1]; Rate 500 g/ha, Preemergence): 0; Plant response rating, Blackgrass ([2]; Rate 62 g/ha, Postemergence): 1; Blackgrass plant response rating ([2]; Rate 62 g/ha, Preemergence): 0; Plant response rating, Blackgrass ([2]; Rate 125 g/ha, Postemergence): 1; Blackgrass plant response rating ([2]; Rate 125 g/ha, Preemergence): 0; Plant response rating, Redroot pigweed ([3]; Rate 62 g/ha, Postemergence): 5; Redroot pigweed plant response rating ([3]; Rate 62 g/ha, Preemergence): 0; Plant response rating, Redroot pigweed ([3]; Rate 125 g/ha, Postemergence): 6; Redroot pigweed plant response rating ([3]; Rate 125 g/ha, Preemergence): 0; Morningglory plant response rating ([4]; Rate 62 g/ha, Preemergence): 0; Plant response rating, Morningglory ([4]; Rate 125 g/ha, Postemergence): 1; Morningglory plant response rating ([4]; Rate 125 g/ha, Preemergence): 0; Plant response rating, B. signalgrass ([5]; Rate 62 g/ha, Postemergence): 1; Plant response rating, B. signalgrass ([5]; Rate 125 g/ha, Postemergence): 1; B. signalgrass plant response rating ([5]; Rate 125 g/ha, Preemergence): 2 |
